Organism: Rattus norvegicus
Test: DrugMatrix - Regimen: Daily Repeat
Type: toxicity, organism-based, Sprague-Dawley
Set-up: regimen Daily Repeat, gender Male, age 6-8 weeks
Conditions: in vivo, po, route oral GAVAGE, […]; for ABSOLUTE BASOPHIL / ABSOLUTE EOSINOPHIL / ABSOLUTE LYMPHOCYTE / ABSOLUTE MONOCYTE / ABSOLUTE SEGMENTED NEUTROPHIL / BASOPHIL / EOSINOPHIL / ERYTHROCYTE COUNT / HEMATOCRIT / HEMOGLOBIN / LEUKOCYTE COUNT / LYMPHOCYTE / MEAN CORPUSCULAR HEMOGLOBIN / MEAN CORPUSCULAR HEMOGLOBIN CONCENTRATION / MEAN CORPUSCULAR VOLUME / MONOCYTE / NEUTROPHIL / NUCLEATED RED BLOOD CELLS / PLATELET COUNT: tissue Blood; for ALANINE AMINOTRANSFERASE / ALBUMIN / ALKALINE PHOSPHATASE / ASPARTATE AMINOTRANSFERASE / BLOOD UREA NITROGEN / CARBON DIOXIDE / CHLORIDE / CHOLESTEROL / CREATINE PHOSPHOKINASE / CREATININE / GLUCOSE / LACTATE DEHYDROGENASE / LIPASE / PHOSPHORUS / POTASSIUM / SODIUM / TOTAL BILIRUBIN / TOTAL PROTEIN / URIC ACID: tissue Plasma
[1] = 0 mg/kg, 72 h, dose level Control, time 3 day
[2] = 0 mg/kg, 120 h, dose level Control, time 5 day
[3] = 50 mg/kg, 72 h, dose level Low, time 3 day

COC(=O)Nc1nc2ccc(C(=O)c3ccccc3)cc2[nH]1 [MEBENDAZOLE]
ABSOLUTE BASOPHIL [1]: 0 CELLS/uL | ABSOLUTE EOSINOPHIL [1]: 0 CELLS/uL | ABSOLUTE LYMPHOCYTE [1]: 9244.83 CELLS/uL | ABSOLUTE MONOCYTE [1]: 102 CELLS/uL | ABSOLUTE SEGMENTED NEUTROPHIL [1]: 869.83 CELLS/uL | BASOPHIL [1]: 0% | EOSINOPHIL [1]: 0% | ERYTHROCYTE COUNT [1]: 5.43 x10E6/uL | HEMATOCRIT [1]: 34.03% | HEMOGLOBIN [1]: 13.27 G/DL | LEUKOCYTE COUNT [1]: 10.22 x10E3/uL | LYMPHOCYTE [1]: 90.33% | MEAN CORPUSCULAR HEMOGLOBIN [1]: 24.48 pg | MEAN CORPUSCULAR HEMOGLOBIN CONCENTRATION [1]: 39.03 G/DL | MEAN CORPUSCULAR VOLUME [1]: 62.75 fL | MONOCYTE [1]: 1% | NEUTROPHIL [1]: 8.67% | NUCLEATED RED BLOOD CELLS [1]: 0.17 /100WBC | PLATELET COUNT [1]: 989 x10E3/uL | ALANINE AMINOTRANSFERASE [1]: 77 u/L | ALBUMIN [1]: 3.97 G/DL | ALKALINE PHOSPHATASE [1]: 464.83 u/L | ASPARTATE AMINOTRANSFERASE [1]: 89.83 u/L | BLOOD UREA NITROGEN [1]: 12.17 mg/dL | CARBON DIOXIDE [1]: 34.17 mmol/L | CHLORIDE [1]: 98.33 MEQ/L | CHOLESTEROL [1]: 75.17 mg/dL | CREATINE PHOSPHOKINASE [1]: 367.67 u/L | CREATININE [1]: 0.16 mg/dL | GLUCOSE [1]: 142.67 mg/dL | LACTATE DEHYDROGENASE [1]: 139.33 u/L | LIPASE [1]: 9.5 u/L | PHOSPHORUS [1]: 10.85 mg/dL | POTASSIUM [1]: 6.38 MEQ/L | SODIUM [1]: 143.2 MEQ/L | TOTAL BILIRUBIN [1]: 0.2 mg/dL | TOTAL PROTEIN [1]: 5.77 G/DL | URIC ACID [1]: 0.7 mg/dL | ABSOLUTE BASOPHIL [2]: 0 CELLS/uL | ABSOLUTE EOSINOPHIL [2]: 0 CELLS/uL | ABSOLUTE LYMPHOCYTE [2]: 8295.33 CELLS/uL | ABSOLUTE MONOCYTE [2]: 84.67 CELLS/uL | ABSOLUTE SEGMENTED NEUTROPHIL [2]: 970 CELLS/uL | BASOPHIL [2]: 0% | EOSINOPHIL [2]: 0% | ERYTHROCYTE COUNT [2]: 5.74 x10E6/uL | HEMATOCRIT [2]: 36.22% | HEMOGLOBIN [2]: 13.85 G/DL | LEUKOCYTE COUNT [2]: 9.35 x10E3/uL | LYMPHOCYTE [2]: 88.67% | MEAN CORPUSCULAR HEMOGLOBIN [2]: 24.13 pg | MEAN CORPUSCULAR HEMOGLOBIN CONCENTRATION [2]: 38.25 G/DL | MEAN CORPUSCULAR VOLUME [2]: 63.08 fL | MONOCYTE [2]: 1% | NEUTROPHIL [2]: 10.33% | NUCLEATED RED BLOOD CELLS [2]: 0.17 /100WBC | PLATELET COUNT [2]: 883.83 x10E3/uL | ALANINE AMINOTRANSFERASE [2]: 64.5 u/L | ALBUMIN [2]: 4.12 G/DL | ALKALINE PHOSPHATASE [2]: 425.67 u/L | ASPARTATE AMINOTRANSFERASE [2]: 88.5 u/L | BLOOD UREA NITROGEN [2]: 14.17 mg/dL | CARBON DIOXIDE [2]: 30.5 mmol/L | CHLORIDE [2]: 100.33 MEQ/L | CHOLESTEROL [2]: 55.33 mg/dL | CREATINE PHOSPHOKINASE [2]: 287.17 u/L | CREATININE [2]: 0.2 mg/dL | GLUCOSE [2]: 162.83 mg/dL | LACTATE DEHYDROGENASE [2]: 111.33 u/L | LIPASE [2]: 10.5 u/L | PHOSPHORUS [2]: 10.32 mg/dL | POTASSIUM [2]: 5.13 MEQ/L | SODIUM [2]: 143.93 MEQ/L | TOTAL BILIRUBIN [2]: 0.17 mg/dL | TOTAL PROTEIN [2]: 5.9 G/DL | URIC ACID [2]: 0.77 mg/dL | ABSOLUTE BASOPHIL [3]: 0 CELLS/uL | ABSOLUTE EOSINOPHIL [3]: 0 CELLS/uL | ABSOLUTE LYMPHOCYTE [3]: 11176.67 CELLS/uL | ABSOLUTE MONOCYTE [3]: 118.33 CELLS/uL | ABSOLUTE SEGMENTED NEUTROPHIL [3]: 1305 CELLS/uL | BASOPHIL [3]: 0% | EOSINOPHIL [3]: 0% | ERYTHROCYTE COUNT [3]: 5.06 x10E6/uL | HEMATOCRIT [3]: 32% | HEMOGLOBIN [3]: 12.6 G/DL | LEUKOCYTE COUNT [3]: 12.6 x10E3/uL | LYMPHOCYTE [3]: 89.33% | MEAN CORPUSCULAR HEMOGLOBIN [3]: 24.93 pg | MEAN CORPUSCULAR HEMOGLOBIN CONCENTRATION [3]: 39.43 G/DL | MEAN CORPUSCULAR VOLUME [3]: 63.27 fL | MONOCYTE [3]: 1% | NEUTROPHIL [3]: 9.67% | NUCLEATED RED BLOOD CELLS [3]: 0 /100WBC | PLATELET COUNT [3]: 983 x10E3/uL | ALANINE AMINOTRANSFERASE [3]: 78 u/L | ALBUMIN [3]: 3.87 G/DL | ALKALINE PHOSPHATASE [3]: 423.67 u/L | ASPARTATE AMINOTRANSFERASE [3]: 86.33 u/L | BLOOD UREA NITROGEN [3]: 12.33 mg/dL | CARBON DIOXIDE [3]: 32 mmol/L | CHLORIDE [3]: 100 MEQ/L | CHOLESTEROL [3]: 74.67 mg/dL | CREATINE PHOSPHOKINASE [3]: 274.33 u/L | CREATININE [3]: 0.25 mg/dL | GLUCOSE [3]: 142.67 mg/dL | LACTATE DEHYDROGENASE [3]: 145 u/L | LIPASE [3]: 11 u/L | PHOSPHORUS [3]: 11.2 mg/dL | POTASSIUM [3]: 5.98 MEQ/L | SODIUM [3]: 144.33 MEQ/L | TOTAL BILIRUBIN [3]: 0.17 mg/dL | TOTAL PROTEIN [3]: 5.53 G/DL | URIC ACID [3]: 0.77 mg/dL

Reference: ChEMBL document CHEMBL3885881, “DrugMatrix”
